The subject of data set [1] is NTox. The data set can be described thus: protection of neurons against isolated NTox applied directly. The format is cell-based. Conditions: for inhibition of killing action of NTox applied to neurons: isolated NTox, FIGS. 13, 32. From the text: FIG. 32 is a graph showing the specificity of tyramine compounds to NTox. […].
Initial studies to characterize the neuroprotective effect of tyramine compounds employed microglia-neuron co-culture assays in the presence of Aβ or isolated senile plaques. Inhibition of neuron killing in […]--inhibition of microglial activation by Aβ or plaques; inhibition of NTox production and release by microglia; or inhibition of action of NTox upon neurons. […] Effective doses in the low nmolar range show the tyramine compounds to be very potent agents compared with low μmolar range of other neuroprotective drugs under development for neurological disorders.

In data set [2] the test system is quinolinic acid (QUIN). The data set is described as follows: protection of neurons against quinolinic acid. The format is cell-based. Conditions: QUIN (100 μM in FIG. 13). From the text: (§1) FIG. 32 is a graph showing the specificity of tyramine compounds to NTox. […]
The test system of data set [3] is Aβ1-42-stimulated microglia. The data set is classed as cell-based, rat. In short, it runs like this:
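E18 rat hippocampal cultures, microglia depleted with saporin–ac-LDL (10 μg/ml, 12 h) on day 14, then given test substances at 10μM with or without exogenous microglia (100,000 cells) for 72 h. Neurons immunostained (NF plus MAP-2) and nuclei counted by fluorescence microscopy; survival expressed as % of parallel untreated controls.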

The subject of data set [4] is NMDA receptor. The data set is described as follows: whole cell current elicited by NMDA in Xenopus oocytes injected with NMDA R1 and R2 subunit cRNAs. The data set is classed as cell-based. Conditions: FIG. 34. From the text:
FIG. 34 is a graph shorting the % maximal current peak elicited by NMDA, octopamine and tyramine compounds in the presence of a given NMDA concentration. […].
The precise mechanism of NTox that leads to the destruction of neurons is only partially characterized. Based upon extensive testing with receptor antagonists, it has been discovered that two classes of neurotransmitter receptors are involved--the n-methyl D-aspartate (NMDA) class of […] receptors and the Muscarinic (M receptors) class of cholinergic receptors. […] […]. Further study to determine if tyramine compounds act upon the NMDA receptor itself involved expression of the NMDA receptor complex in Xenopus oocytes and measurement of ionic fluxes across the oocyte membrane that are elicited by NMDA. […] […]. […] Thus, tyramine compounds appear to have several actions, one of which is upon the NMDA receptor.

Data set [5] relates to AMAA. The data set is described as follows: protection of neurons against AMAA. Conditions: FIG. 32. The data set is classed as cell-based.
Text: as §1

Data set [6] concerns human microglia stimulated with S5. The format is cell-based.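 Also: drugs applied at 10 µM.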
The subject of data set [7] is HEK cells expressing NMDA1b/2A. The data set is described as follows: NTox killing of HEK cells expressing NMDA receptors, trypan blue. Conditions: 1 nM NTox, 24 hours. The data set is classed as cell-based, human. The text has this:
Photomicrograph of trypan blue(+) control HEK cells exposed to NTox. Few blue, dead cells are noted.

The subject of data set [8] is macrophages. The data set is described as follows: competition with microspheres coupled to Aβ1-42, macrophages. The format is binding. The following applies: 4 hours at 37° C.
Data set [9] concerns kidney cells. The data set can be described thus: competition with microspheres coupled to Aβ1-42, kidney cells. The format is binding. Conditions: 4 hours at 37° C.
The subject of data set [10] is rat microglia. The data set can be described thus: binding of Aβ-coupled microspheres to microglia. The following applies: 4 hours at 37° C. (72 h in FIG. 23).
Data set [11] concerns microglia. The data set is described as follows: inhibition of SpheresAβ1-42 binding to microglia. The arrangement: species or system rat. Conditions: 10 μmoles/l, 4 hours, 37° C.
In data set [12] the test system is plaque-stimulated microglia. The data set can be described thus: blocking of plaque-induced microglial neurotoxicity. The data set is classed as cell-based, rat. Conditions: FIG. 16C.
Data set [13] has as its system astroglia. The data set is classed as cell-based, rat. The following applies: 100 μmoles/l. The text has this:
FIGS. 21A-D display toxic actions of synthetic Aβ peptides upon neurons. […]. There is, however, a generalized cytotoxic action by Aβ25-35 at>30 μmoles/l on both neurons (FIG. 21A) and astroglia (FIG. 21B). In the absence of microglia, none of the Aβ peptides (at 1 μmole/l) produce destruction of neurons. […] These observations point to the need to deplete neuron cultures of microglia when assessing mechanisms of Aβ toxicity. […]; FIG. 21E).
. Briefly, hippocampal cells obtained from embryonic stage 18 rat fetuses were dispersed mechanically in the presence of 0.125% trypsin and plated onto poly-L-lysine coated glass coverslips in 24 well plates at 250,000 cells per well (resulting in adhering cell densities of about 1250 cells per mm^2) in chemically-defined N2 culture media containing 5% fetal bovine serum. Gradual reduction of serum began on day 10 in vitro with daily 1:1 volume replacements with chemically-defined media, until a final concentration of 0.6% serum was achieved. […]
On day 14 of culture, immediately following saporin treatment, test substances were added to the hippocampal cultures. […] Immuno-labeled cells per field and nuclei per field were scored at 200X magnification using fluorescence microscopy. Data were expressed as % mean survival expressed in terms of parallel untreated control cultures after scoring at least 20 randomly selected fields for each of 3 coverslips.

In data set [14] the test system is hippocampal neurons. The data set is classed as cell-based, rat. The following applies: 100 μmoles/l.
The format of data set [15] is physicochemical. Conditions: chemically defined culture media, 37° C.; Table 2. From the text:
Solubility of peptides is described for chemicallydefined culture media a […]

Entries after “also recorded” stand apart in the source; their conditions may differ.

Turning to `NC(CCCP(=O)(O)O)C(=O)O` (centres unmarked) [AP5], in data set [1], the “neuroprotective effects against NTox, concentration range” value is approximately 100 nM and the “inhibition of killing action of NTox applied to neurons” value is “NTox can be blocked”. Also, in [2], the “protection against quinolinic acid” value is recorded as “prevented from killing neurons”. In addition, in data set [3], the “drug blockade of neuron killing, rat microglia” value was “prevented neuronal loss; also recorded: prevented neuron death”. Moreover, in [4], the “effect on current elicited by NMDA” value is listed as “could be blocked”. The “protection against AMAA” value in data set [5] is listed as “prevented from killing neurons”. Further, the “drug blockade of neuron killing, human microglia” value in data set [6] was “prevented neuron death”.

Regarding `C[C@]12N[C@H](Cc3ccccc31)c1ccccc12` [MK-801], in data set [1], the “neuroprotective effects against NTox, concentration range” value is approximately 100 nM and the “inhibition of killing action of NTox applied to neurons” value is listed as “NTox can be blocked”. In addition, the “protection against quinolinic acid” value in data set [2] is on record as “prevented from killing neurons”. Besides, the “drug blockade of neuron killing, rat microglia” value in data set [3] is on record as “prevented neuronal loss; also recorded: blocked neuron death”. Besides, the “effect on current elicited by NMDA” value in data set [4] is on record as “could be blocked”. Also, in [7], the “blocking of NTox killing” value is “could be blocked”. In addition, in data set [5], the “protection against AMAA” value is recorded as “prevented from killing neurons”. For the same molecule, the “drug blockade of neuron killing, human microglia” value in data set [6] was “blocked neuron death”.

For “Aβ10-16: Aβ peptide residues 10-16 (YEVHHQK; Amyloid-beta protein 42; UniProt P05067 681-687, looked up, fragment)”, the “blocking of Aβ1-42 induced microglial neurotoxicity by peptides” value in data set [3] (10 μmoles/liter peptide, 1 μmole/liter Aβ1-42) was “blocked neurotoxin production”. In data set [3] (read-out: ED50 (blocking of Aβ1-42 induced neurotoxicity), FIG. 16B), the IC50 was approximately 30 nM. Moreover, in [8], the “competition with Aβ1-42 microspheres, macrophages” value is reported as “competition occurs with the macrophages in a dose dependent manner”. In addition, the “competition with Aβ1-42 microspheres, kidney cells” value in data set [9] is listed as “no changes in binding”. For the same molecule, the “binding of peptide-coupled microspheres to microglia” value in data set [10] was “readily bind; also recorded: able to bind to microglia”. In [11], the “inhibition of SpheresAβ1-42 binding by peptides” value is “effectively prevented”. Moreover, the “blocking of plaque-induced microglial toxicity by peptides” value in data set [12] is reported as “blocked plaque-induced toxicity in vitro”.

In [13], “Aβ25-35: Aβ peptide residues 25-35 (GSNKGAIIGLM; Amyloid-beta protein 42; UniProt P05067 696-706, looked up, fragment)” showed a destruction of glia of approximately 90%. Also, in data set [14], the destruction of neurons is approximately 90%. Further, the “binding of peptide-coupled microspheres to microglia” value in [10] is “little cell binding”. Further, in data set [15], the Solubility entry is “soluble”.
